Experimental data as given in publication PMC5176352, “Structural basis for subtype-specific inhibition of the P2X7 receptor” (eLife, 2016).
Like-named read-outs stand apart in the source and are kept apart here.

Tests used:
[1] = target: full length pdP2X7 (Ailuropoda melanoleuca, UniProt G1M6C4); assay: YO-PRO-1 uptake assay (inhibition of ATP-triggered dye uptake); assay type: cell-based, giant panda (Ailuropoda melanoleuca)
Description: We further validated the drug-receptor interactions by site-directed mutagenesis on the drug-binding residues. To facilitate robust and systematic data collection, we monitored cellular uptake of the fluorescent dye, YO-PRO-1, as a proxy for receptor activity ([Surprenant et al., 1996]) (Figure 3—figure supplement 4A). […] In particular, interaction with F103 is crucial for the inhibitory action of all five drugs.
(§1) Human embryonic kidney (HEK293) cells were maintained in DMEM medium (Thermo Fisher Scientific) supplemented with 10% FBS (Atlanta Biologicals, Flowery Branch, GA), and 10 μg/mL gentamicin (Thermo Fisher Scientific). HEK293 cells were split into six well plates at a cell density of 2.0 × 10^6 cells/well and incubated overnight. […] Cells were washed with assay buffer (2 mM KCl, 0.1 mM CaCl2, 13 mM Glucose, 147 mM NaCl, 10 mM HEPES (pH 7.3)) and were incubated with 5 μM YO-PRO-1 Iodide (Thermo Fisher Scientific), in the presence or absence of antagonists at multiple concentrations at 37°C for 10 min. Upon application of 1 mM ATP (final), uptake of YO-PRO-1 was recorded with 1 min intervals by following the fluorescence change using a Synergy HT multi-detection microplate reader (Bio-Tek, Winooski, VT; Ex: 485 nm/20, Em:528 nm/20, sensitivity 60). To obtain the dose dependent uptake inhibition by antagonists, the initial rates of YO-PRO-1 uptake were plotted against multiple concentrations of the P2X7 specific drugs. The inhibition curves from five independent measurements were fitted to the Hill equation using Origin software (Originlab, Northampton, MA) to determine the IC50 values.

[2] = target: wildtype pdP2X7 (Ailuropoda melanoleuca, UniProt G1M6C4); assay: BzATP dose response of YO-PRO-1 uptake with antagonists, fitted with competitive / non-competitive inhibition models; assay type: cell-based, giant panda (Ailuropoda melanoleuca); details: for Kb: curve fitting of BzATP dose responses
Description: To clarify the working mechanism for each drug, we measured the dose responses of the P2X7 mediated YO-PRO-1 uptake in the presence of each drug at multiple concentrations. We used BzATP—an artificial but potent agonist of P2X7 receptors—for these experiments to achieve saturating responses in the presence of concentrated antagonist.
as §1
Dose response curves of the YO-PRO-1 uptake experiments were fitted with either competitive or non-competitive inhibition models using Origin 6.0 software (OriginLab) as previously described ([Kenakin, 2006]). For the competitive antagonism model, we used the equation: Response=[A]/KA/[A]KA(1+τ)+[B]/KB+1
where [A] , [B] are the concentrations of BzATP and antagonists, respectively; KA and KB are the equilibrium dissociation-constant of BzATP and antagonists, respectively. […] KB was then determined using the dose response curves in the presence of antagonists. […] For the non-competitive inhibition model, we used the equation: Response=([A]^nτ^nEmax)/([A]^nτ^n+([A](1+α[B]/KB)+KA[B]/KB+KA)^n
where n is the Hill coefficient, and Emax is the maximum initial rate. […] Schild regression analysis was performed as described previously ([Wyllie and Chen, 2007]). Briefly, concentrations of BzATP at half maximal initial rates of YO-PRO-1 uptake in the presence (EC50’) or absence (EC50) of antagonists were determined by fitting the dose responses with the Hill equation.

[3] = target: P2X7 receptor; parameters: method as in Yan et al., 2010; details: under physiological ion concentrations; ref Yan et al., 2010; read-out: EC50 for initial activation; cited from earlier work
[4] = target: T1, pdP2X7 (Ailuropoda melanoleuca, UniProt G1M6C4); assay: Whole cell patch clamp ATP dose response
T1 sequence (G1M6C4 2-606): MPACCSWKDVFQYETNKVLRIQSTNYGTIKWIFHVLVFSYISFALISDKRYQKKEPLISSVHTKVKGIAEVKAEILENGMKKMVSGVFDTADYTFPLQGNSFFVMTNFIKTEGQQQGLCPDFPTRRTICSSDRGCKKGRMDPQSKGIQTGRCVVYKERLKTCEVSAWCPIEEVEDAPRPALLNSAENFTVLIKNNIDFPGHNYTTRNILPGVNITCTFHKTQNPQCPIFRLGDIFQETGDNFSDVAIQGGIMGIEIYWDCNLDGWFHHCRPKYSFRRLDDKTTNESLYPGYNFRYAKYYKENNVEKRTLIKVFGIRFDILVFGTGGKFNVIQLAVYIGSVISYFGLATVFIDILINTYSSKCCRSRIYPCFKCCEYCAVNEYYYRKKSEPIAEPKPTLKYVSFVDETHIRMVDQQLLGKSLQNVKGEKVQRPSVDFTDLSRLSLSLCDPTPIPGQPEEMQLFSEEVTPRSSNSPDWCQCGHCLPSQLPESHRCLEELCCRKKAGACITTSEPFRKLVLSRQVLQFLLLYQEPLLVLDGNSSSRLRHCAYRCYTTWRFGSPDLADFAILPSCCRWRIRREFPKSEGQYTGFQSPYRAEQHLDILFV

[5] = target: T2, pdP2X7cryst (Ailuropoda melanoleuca, UniProt G1M6C4, E175K/N242S/N285S/R126A/V36A); assay: Whole cell patch clamp ATP dose response
T2 sequence (G1M6C4 23-360 V36A/R126A/E175K/N242S/N285S): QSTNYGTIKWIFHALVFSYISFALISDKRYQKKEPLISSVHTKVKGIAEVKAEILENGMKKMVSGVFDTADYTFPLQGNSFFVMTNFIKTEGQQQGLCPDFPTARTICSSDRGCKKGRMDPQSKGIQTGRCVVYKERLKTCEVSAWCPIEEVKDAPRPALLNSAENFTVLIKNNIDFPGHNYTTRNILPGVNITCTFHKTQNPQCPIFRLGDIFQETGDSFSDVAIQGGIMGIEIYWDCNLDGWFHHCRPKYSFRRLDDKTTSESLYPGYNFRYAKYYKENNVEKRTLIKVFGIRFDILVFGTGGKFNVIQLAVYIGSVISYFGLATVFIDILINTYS

[6] = HEK293 cells, YO-PRO-1 uptake initiated with 1 mM ATP, initial rates, wildtype, read-out: IC50
[7] = competitive model, read-out: KB (equilibrium dissociation-constant of antagonist), competitive antagonism model
[8] = non-competitive model, α = 1, read-out: KB (equilibrium dissociation-constant of antagonist), non-competitive inhibition model
[9] = KB (equilibrium dissociation-constant of antagonist), competitive antagonism model, competitive model
[10] = KB (equilibrium dissociation-constant of antagonist), non-competitive inhibition model, non-competitive model, α = 1
[11] = data without antagonists, non-competitive model equation
[12] = dose response without antagonist, competitive model equation

Molecule `COc1ccc(CC(=O)NC(N/C(=N/C#N)Nc2cccc3ncccc23)C(C)(C)C)cc1OC` (centres unmarked) [A740003, N-(1-{[(cyanoimino)(5-quinolinylamino)methyl]amino}-2,2-dimethylpropyl)-2-(3,4-dimethoxyphenyl)acetamide] has an IC50 [1, 6] of 0.0693 µM, a Kb [2, 7] of 0.024 µM and a Kb [2, 8] of 1.2 µM.
Molecule `C[C@H](N/C(=N/C#N)Nc1cccc2ncccc12)c1ccccc1` [A804598, 2-cyano-1-[(1S)-1-phenylethyl]-3-quinolin-5-ylguanidine] has an IC50 [1, 6] of 0.0217 µM, a Kb [2, 7] of 0.015 µM and a Kb [2, 8] of 0.57 µM.
For `Nc1ncnc2c1ncn2[C@@H]1O[C@H](COP(=O)(O)OP(=O)(O)OP(=O)(O)O)[C@@H](O)[C@H]1O` [ATP, adenosine triphosphate], the EC50 [3] is listed as no less than 1000 µM, the EC50 [4] is listed as 122 µM and the EC50 [5] is listed as 40 µM.
`O=C(CC12CC3CC(CC(C3)C1)C2)Nc1cccc2nc(NCCNCCO)ccc12` [AZ10606120] showed an IC50 [1] of 0.231 µM, a Kb [2, 9] of 0.056 µM and a Kb [2, 10] of 3.4 µM.
In the case of `Nc1ncnc2c1ncn2[C@@H]1O[C@H](COP(=O)(O)OP(=O)(O)OP(=O)(O)O)[C@@H](OC(=O)c2ccc(C(=O)c3ccccc3)cc2)[C@H]1O` [BzATP], the “KA (equilibrium dissociation-constant of BzATP), non-competitive inhibition model” value [2, 11] is reported as 220 µM, the “n (Hill coefficient), non-competitive inhibition model” value [2, 11] is reported as 2.6 and the “τ, non-competitive inhibition model” value [2, 11] is reported as 10. The “KA (equilibrium dissociation-constant of BzATP), competitive antagonism model” value [2, 12] was 28 µM and the “τ, competitive antagonism model” value [2, 12] was 0.031.
In the case of `Cc1ccc(CN2CCNCC2)cc1NC(=O)CNc1ccc(F)c(F)c1` [GW791343], the IC50 [1] is reported as 8.9 µM, the Kb [2, 9] is reported as 3 µM and the Kb [2, 10] is reported as 266 µM.
Molecule `O=C(NCC1(N2CCN(c3ccccc3)CC2)CCOCC1)c1cccnc1Sc1ccccc1` [JNJ47965567] has an IC50 [1] of 0.0119 µM, a Kb [2, 9] of 0.0017 µM and a Kb [2, 10] of 0.14 µM.
